Assay results reported in US7629341B2, “Human ADAM-10 inhibitors” (Symphony Evolution, Inc., priority 2003, dated 2009).

How the values were obtained:
MMP-13 (collagenase-3) = MMP-13 (collagenase-3) (Homo sapiens, UniProt P45452); test: In vitro metalloprotease inhibition, MMP-13; format: biochemical
[1] = molecular target: T1, MMP-1 (Fibroblast collagenase) (Homo sapiens, UniProt P03956); test: In vitro metalloprotease inhibition, MMP-1; format: biochemical
T1 sequence (P03956 100-469): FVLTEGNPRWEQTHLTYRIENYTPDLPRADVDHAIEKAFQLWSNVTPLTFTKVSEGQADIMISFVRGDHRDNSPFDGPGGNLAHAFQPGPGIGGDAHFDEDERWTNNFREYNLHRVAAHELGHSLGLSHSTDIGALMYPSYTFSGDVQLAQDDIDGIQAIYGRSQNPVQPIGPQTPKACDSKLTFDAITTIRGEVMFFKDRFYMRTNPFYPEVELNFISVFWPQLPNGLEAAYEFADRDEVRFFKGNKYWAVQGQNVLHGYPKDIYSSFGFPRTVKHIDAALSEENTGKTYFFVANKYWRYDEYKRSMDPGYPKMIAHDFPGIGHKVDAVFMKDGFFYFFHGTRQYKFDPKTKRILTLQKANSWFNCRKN
Source text: (§1) Blank cells indicate lack of data only.

[2] = molecular target: T2, MMP-2 (72 kDa gelatinase, gelatinase A) (Homo sapiens, UniProt P08253); test: In vitro metalloprotease inhibition, MMP-2; format: biochemical
T2 sequence (P08253 110-660): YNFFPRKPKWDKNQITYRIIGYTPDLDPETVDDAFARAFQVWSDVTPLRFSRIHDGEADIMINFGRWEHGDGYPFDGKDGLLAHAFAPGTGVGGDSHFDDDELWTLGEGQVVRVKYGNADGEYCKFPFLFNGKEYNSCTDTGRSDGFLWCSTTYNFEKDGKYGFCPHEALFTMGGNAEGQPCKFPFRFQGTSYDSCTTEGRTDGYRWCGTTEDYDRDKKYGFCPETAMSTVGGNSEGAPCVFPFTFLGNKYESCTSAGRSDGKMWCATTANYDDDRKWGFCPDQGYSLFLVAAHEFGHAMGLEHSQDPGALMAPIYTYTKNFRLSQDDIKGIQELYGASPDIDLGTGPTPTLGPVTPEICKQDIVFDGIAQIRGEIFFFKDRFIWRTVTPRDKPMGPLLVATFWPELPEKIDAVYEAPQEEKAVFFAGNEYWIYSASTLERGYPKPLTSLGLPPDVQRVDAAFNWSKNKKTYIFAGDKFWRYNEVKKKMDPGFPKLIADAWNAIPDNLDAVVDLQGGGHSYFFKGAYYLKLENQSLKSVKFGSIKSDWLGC

MMP-3 (Stromelysin-1) = MMP-3 (Stromelysin-1) (Homo sapiens, UniProt P08254); test: In vitro metalloprotease inhibition, MMP-3; format: biochemical
Source text: as §1

ADAM-10 = molecular target: T3, ADAM-10 (UniProt O14672); test: ADAM-10 enzyme assay, cleavage of a fluorogenic 10-residue peptide; format: biochemical, mouse or human (mADAM-10 or hADAM-10); settings: in vitro;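 further: mouse or human ADAM-10 at 5 nM active enzyme, pH 8.0 HEPES buffer with CaCl2 and NP-40, compounds titrated 100 µM down to 0.5 nM, fluorescence read after 16 h at room temperature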
T3 sequence (O14672 1-748): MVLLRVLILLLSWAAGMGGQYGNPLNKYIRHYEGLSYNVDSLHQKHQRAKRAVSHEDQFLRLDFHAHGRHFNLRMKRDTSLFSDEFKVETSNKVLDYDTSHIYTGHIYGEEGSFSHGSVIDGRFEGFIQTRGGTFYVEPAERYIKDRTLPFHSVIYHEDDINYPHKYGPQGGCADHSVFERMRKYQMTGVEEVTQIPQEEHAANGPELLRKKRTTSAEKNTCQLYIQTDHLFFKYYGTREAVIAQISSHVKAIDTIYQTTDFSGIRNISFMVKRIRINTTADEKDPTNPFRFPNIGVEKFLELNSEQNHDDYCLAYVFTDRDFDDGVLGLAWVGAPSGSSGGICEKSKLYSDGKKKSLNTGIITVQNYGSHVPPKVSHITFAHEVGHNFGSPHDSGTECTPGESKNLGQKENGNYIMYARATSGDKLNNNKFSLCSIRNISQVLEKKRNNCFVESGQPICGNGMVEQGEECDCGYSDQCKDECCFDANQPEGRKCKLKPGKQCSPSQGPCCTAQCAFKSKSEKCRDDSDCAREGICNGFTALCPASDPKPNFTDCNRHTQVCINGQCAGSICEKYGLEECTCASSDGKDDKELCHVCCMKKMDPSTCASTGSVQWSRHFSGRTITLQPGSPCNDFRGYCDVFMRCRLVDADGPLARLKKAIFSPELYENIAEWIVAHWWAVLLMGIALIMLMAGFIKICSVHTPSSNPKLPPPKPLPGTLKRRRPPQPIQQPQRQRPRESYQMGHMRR
Procedure: mADAM-10 or hADAM-10 activity was measured as the ability to cleave a 10-residue peptide (DABCYL-Leu-Leu-Ala-Gln-Lys-*-LeuArg-Ser-Ser-Arg-EDANS). […] Enzyme was diluted to a final active concentration of 5 nM in Buffer A (50 mM HEPES 8.0, 100 mM NaCl, 1 mM CaCl2 and 0.01% NP-40). Serial dilutions for compounds were performed ranging from 100 μM to 0.5 nM using a Beckman Biomek 2000 in polypropylene plates (Greiner). […] This reaction was incubated for 16 hr at RT and fluorescence was read using identical conditions.

Chain of MMP-3 (Stromelysin-1) (P08254 100-477, species assumed): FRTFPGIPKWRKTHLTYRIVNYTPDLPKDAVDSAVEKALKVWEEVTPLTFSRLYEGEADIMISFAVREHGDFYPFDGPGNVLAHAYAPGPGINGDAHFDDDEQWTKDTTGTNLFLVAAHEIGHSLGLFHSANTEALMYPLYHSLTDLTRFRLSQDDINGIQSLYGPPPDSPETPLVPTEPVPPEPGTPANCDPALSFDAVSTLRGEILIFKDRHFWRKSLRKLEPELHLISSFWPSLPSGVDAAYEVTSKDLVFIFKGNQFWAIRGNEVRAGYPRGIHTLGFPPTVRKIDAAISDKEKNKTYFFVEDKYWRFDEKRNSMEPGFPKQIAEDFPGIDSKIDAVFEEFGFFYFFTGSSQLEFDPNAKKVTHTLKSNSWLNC

Structure (SMILES) | IC50 (MMP-13 (collagenase-3)) | IC50 [1] | IC50 [2] | IC50 (MMP-3 (Stromelysin-1)) | IC50 (ADAM-10)
O=C(NO)[C@H]1CN(C(=O)CN2CCCCC2)CCN1S(=O)(=O)c1cc(F)c(Oc2ccc(Cl)cc2)c(F)c1 [Entry 26] | < 0.05 µM | > 20 µM | < 0.05 µM | 1 to 20 µM | < 0.05 µM
O=C(NO)[C@H]1CN(C(=O)N2CCOCC2)CCN1S(=O)(=O)c1cc(F)c(Oc2ccc(F)cc2)c(F)c1 [Entry 12] | < 0.05 µM | 1 to 20 µM | < 0.05 µM | 0.05 to 1 µM | < 0.05 µM
O=C(NO)[C@H]1CN(C(=O)OCCN2CCCC2)CCN1S(=O)(=O)c1cc(F)c(Oc2ccc(Cl)cc2)c(F)c1 [Entry 18] | < 0.05 µM | > 20 µM | < 0.05 µM | 0.05 to 1 µM | < 0.05 µM
CN1CCC(OC(=O)N2CCN(S(=O)(=O)c3cc(F)c(Oc4ccc(Cl)cc4)c(F)c3)[C@@H](C(=O)NO)C2)CC1 [Entry 22] | < 0.05 µM | 1 to 20 µM | < 0.05 µM | 0.05 to 1 µM | < 0.05 µM
O=C(NO)[C@H]1CN(C(=O)c2ccc(-c3ccccc3)cc2)CCN1S(=O)(=O)c1cc(F)c(Oc2ccc(Cl)cc2)c(F)c1 [Entry 51] | 0.05 to 1 µM | 1 to 20 µM | 0.05 to 1 µM | 1 to 20 µM | 0.05 to 1 µM
COCCOC(=O)N1CCN(S(=O)(=O)c2ccc(Oc3ccc(F)cc3)cc2)[C@@H](C(=O)NO)C1 [Entry 1] | < 0.05 µM | < 0.05 µM | < 0.05 µM | < 0.05 µM | < 0.05 µM
O=C(NO)[C@H]1CN(C(=O)c2ccncc2)CCN1S(=O)(=O)c1cc(F)c(Oc2ccc(Cl)cc2)c(F)c1 [Entry 42] | < 0.05 µM | 1 to 20 µM | < 0.05 µM | 1 to 20 µM | < 0.05 µM
COCCOC(=O)N1CCN(S(=O)(=O)c2ccc(Oc3ccc(F)cc3)nc2)[C@@H](C(=O)NO)C1 [Entry 65] | < 0.05 µM | < 0.05 µM | < 0.05 µM | < 0.05 µM | 0.05 to 1 µM
C=CCN1CCN(S(=O)(=O)c2cc(F)c(Oc3ccc(Cl)cc3)c(F)c2)[C@@H](C(=O)NO)C1 [Entry 62] | < 0.05 µM | > 20 µM | < 0.05 µM | 1 to 20 µM | 0.05 to 1 µM
CN1CCN(C(=O)N2CCN(S(=O)(=O)c3cc(F)c(Oc4ccc(Cl)cc4)c(F)c3)[C@@H](C(=O)NO)C2)CC1 [Entry 16] | < 0.05 µM | > 20 µM | < 0.05 µM | 1 to 20 µM | < 0.05 µM
CN(C)c1ccc2ccc(S(=O)(=O)N3CCN(S(=O)(=O)c4cc(F)c(Oc5ccc(Cl)cc5)c(F)c4)[C@@H](C(=O)NO)C3)cc2c1 [Entry 50] | < 0.05 µM | > 20 µM | > 20 µM | 0.05 to 1 µM | 1 to 20 µM
O=C(NO)[C@H]1CN(C(=O)N2CCOCC2)CCN1S(=O)(=O)c1ccc(Oc2ccc(F)cc2)cc1 [Entry 2] | < 0.05 µM | < 0.05 µM | < 0.05 µM | < 0.05 µM | < 0.05 µM
CNC(=O)CN1CCN(S(=O)(=O)c2cc(F)c(Oc3ccc(Cl)cc3)c(F)c2)[C@@H](C(=O)NO)C1 [Entry 19] | < 0.05 µM | > 20 µM | < 0.05 µM | 0.05 to 1 µM | < 0.05 µM
O=C(NO)[C@H]1CN(C(=O)Cc2ccncc2)CCN1S(=O)(=O)c1cc(F)c(Oc2ccc(Cl)cc2)c(F)c1 [Entry 52] | < 0.05 µM | 1 to 20 µM | < 0.05 µM | 1 to 20 µM | < 0.05 µM
O=C(NO)[C@H]1CN(C(=O)CN2CCOCC2)CCN1S(=O)(=O)c1cc(F)c(Oc2ccc(Cl)cc2)c(F)c1 [Entry 25] | < 0.05 µM | > 20 µM | < 0.05 µM | 0.05 to 1 µM | < 0.05 µM
